Drawing on patent US8609661B2, “Pyrimido-pyrrolo-quinoxalinedione inhibitors of cystic fibrosis transmembrane conductance regulator protein and uses therefor” (The Regents of the University of California, priority 2009, dated 2013), this text covers inhibition and IC50 for 24 compounds.

The target in this assay is T1, human wildtype CFTR (Homo sapiens, UniProt P13569).
T1 construct: expressed in transfected cells; host or cells: Fischer rat thyroid (FRT) cells
Nature of the assay: Fluorescence platereader assay of CFTR-mediated iodide influx (YFP quenching) in FRT cells. As to conditions: for inhibition at 5 µM / inhibition at 25 µM: FRT; for IC50: apparent IC50 from concentration-inhibition data, fluorescence platereader assay. The format is cell-based. How it is done: A. Cell lines and compounds—Fischer rat thyroid (FRT) cells co-expressing human wildtype CFTR and the halide indicator YFP-H148Q/1152L were generated as described (see, e.g., Ma et al., J. Clin. Invest. 110:1651-1658 (2002)). Cells were plated in 96-well black-walled microplates (Corning Costar) at a density of 20,000 cells per well in Coon's modified F12 medium supplemented with 5% fetal calf serum, 2 mM L-glutamine, 100 U/mL penicillin, and 100 μg/ml streptomycin. Assays were performed at 48 h after plating the cells when the cells were just confluent. For some experiments, measurements were made using T84 human intestinal epithelial cells and for other experiments, measurements were obtained using primary cultures of human bronchial epithelial cells, which were obtained and grown essentially as previously described (see, e.g., 3 and 27).
B. Compound Screening—Assays were performed using an automated screening platform (Beckman) equipped with FLUOStar fluorescence platereaders (BMG Lab Technologies, Offenburg, Germany) as described (see Ma et al., supra). Each well of a 96-well plate containing FRT cells was washed 3 times in PBS (300 μL/wash), leaving 50 μL PBS. […] After 15 min, 96-well plates were transferred to a plate reader for fluorescence assay. Each well was assayed individually for CFTR-mediated iodide influx by recording fluorescence continuously (200 ms per point) for 2 s (baseline) and then for 10 s after rapid addition of 160 μL of isosmolar PBS in which 137 mM chloride was replaced by iodide. The initial rate of iodide influx was computed from fluorescence data by non-linear regression.
Collections of synthetic and natural compounds were screened according to the screening procedures described in Example 2. A cell-based fluorescence assay was used in which CFTR inhibitors were identified by reduced iodide influx in FRT cells co-expressing human CFTR and a YFP halide sensor. CFTR was maximally activated by a mixture of agonists having different activating mechanisms. Inhibition of iodide influx was observed as reduced YFP fluorescence quenching in response to rapid iodide addition to each well of 96-well plates. […]

[1] abbreviates: Table 2, screening, 5 μM, read-out: % Inhibition at 5 μM.
[2] abbreviates: Table 2, screening, 25 μM, read-out: % Inhibition at 25 μM.
Setting [3] is: read-out: % inhibition at 25/5 μM (5 μM value), Table 1, 5 μM compound.
Setting [4] is: read-out: % inhibition at 25/5 μM (25 μM value), Table 1, 25 μM compound.

Structures are written as SMILES. Like-named read-outs stand apart in the source and are kept apart here.

T1 sequence (P13569 whole entry): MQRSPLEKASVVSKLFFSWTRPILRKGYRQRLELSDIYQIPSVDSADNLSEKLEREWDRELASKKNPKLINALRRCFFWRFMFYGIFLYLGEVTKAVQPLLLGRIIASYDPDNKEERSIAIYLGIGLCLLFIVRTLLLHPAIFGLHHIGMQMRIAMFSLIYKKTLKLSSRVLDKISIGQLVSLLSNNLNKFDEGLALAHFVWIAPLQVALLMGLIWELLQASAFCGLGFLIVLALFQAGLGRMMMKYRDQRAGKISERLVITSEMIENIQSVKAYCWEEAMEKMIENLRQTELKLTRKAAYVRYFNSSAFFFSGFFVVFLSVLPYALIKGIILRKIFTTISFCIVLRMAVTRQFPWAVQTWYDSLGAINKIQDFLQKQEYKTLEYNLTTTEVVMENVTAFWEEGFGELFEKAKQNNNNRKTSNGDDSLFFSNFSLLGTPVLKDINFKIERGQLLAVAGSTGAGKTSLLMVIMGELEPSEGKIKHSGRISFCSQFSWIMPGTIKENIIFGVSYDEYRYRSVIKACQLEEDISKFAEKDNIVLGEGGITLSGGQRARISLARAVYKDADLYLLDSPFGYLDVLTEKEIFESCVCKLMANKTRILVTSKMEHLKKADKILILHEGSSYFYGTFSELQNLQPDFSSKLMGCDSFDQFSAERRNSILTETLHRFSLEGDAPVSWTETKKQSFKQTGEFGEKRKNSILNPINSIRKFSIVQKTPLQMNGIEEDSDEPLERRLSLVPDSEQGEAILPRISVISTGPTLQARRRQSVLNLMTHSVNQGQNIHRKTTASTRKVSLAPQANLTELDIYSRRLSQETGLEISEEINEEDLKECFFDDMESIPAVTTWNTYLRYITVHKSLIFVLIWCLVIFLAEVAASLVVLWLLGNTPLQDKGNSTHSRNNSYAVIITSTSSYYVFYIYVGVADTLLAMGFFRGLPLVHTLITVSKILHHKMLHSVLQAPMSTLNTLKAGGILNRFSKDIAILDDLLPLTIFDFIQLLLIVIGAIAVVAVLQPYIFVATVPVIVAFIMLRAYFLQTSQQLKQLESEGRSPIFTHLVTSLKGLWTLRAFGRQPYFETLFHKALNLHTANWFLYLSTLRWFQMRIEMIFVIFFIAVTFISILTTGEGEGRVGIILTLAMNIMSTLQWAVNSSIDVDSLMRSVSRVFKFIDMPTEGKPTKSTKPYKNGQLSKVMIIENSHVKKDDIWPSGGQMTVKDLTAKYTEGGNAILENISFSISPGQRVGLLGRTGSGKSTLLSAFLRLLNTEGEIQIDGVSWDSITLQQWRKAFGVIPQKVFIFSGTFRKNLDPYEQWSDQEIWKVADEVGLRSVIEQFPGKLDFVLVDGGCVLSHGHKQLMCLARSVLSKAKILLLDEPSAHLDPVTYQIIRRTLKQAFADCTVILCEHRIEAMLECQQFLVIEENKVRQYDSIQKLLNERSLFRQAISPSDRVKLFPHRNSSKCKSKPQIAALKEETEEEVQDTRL

With `Cc1cc2c(cc1C)-n1c(-c3ccccc3F)c3c(=O)n(C)c(=O)n(C)c3c1C(c1ccco1)N2` (centres unmarked), under setting [1], the inhibition at 5 µM was determined as 41%. In addition, the inhibition at 25 µM under setting [2] was found to be 44%.

Take `Cn1c(=O)c2c(-c3ccccc3F)n3c(c2n(C)c1=O)C(c1ccc(F)cc1F)Nc1ccccc1-3` (centres unmarked) [PPQ-244, 7,9-Dimethyl-11-(2-fluorophenyl)-6-(2,4-difluorophenyl)-5,6-dihydro-pyrimido[4′,5′-3,4]pyrrolo[1,2-a]quinoxaline-8,10-(7H,9H)-dione]: the inhibition at 5 µM under setting [1] worked out at 32%. In addition, the inhibition at 25 µM under setting [2] came out at 56%.

Broadly, the IC50 is the concentration at which inhibition is half-maximal. With `Cc1ccc(C2Nc3cc(C)c(C)cc3-n3c(-c4ccccc4F)c4c(=O)n(C)c(=O)n(C)c4c32)o1` (centres unmarked) [PPQ-105, 2,3,7,9-Tetramethyl-11-(2-fluorophenyl)-6-(5-methylfuran-2-yl)-5,6-dihydro-pyrimido[4′,5′-3,4]pyrrolo[1,2-a]quinoxaline-8,10-(7H,9H)-dione], the IC50 worked out at 1500 nM. Further, the inhibition at 5 µM under setting [1] was found to be 78%. Moreover, the inhibition at 25 µM under setting [2] amounted to 78%.

In the case of `CCOc1cc(C2Nc3ccccc3-n3c(-c4ccccc4)c4c(=O)n(C)c(=O)n(C)c4c32)ccc1O` (centres unmarked), under setting [1], the inhibition at 5 µM is under 10%. The inhibition at 25 µM under setting [2] was found to be 47%.

Consider `C=CCc1cccc(C2Nc3ccccc3-n3c(-c4ccccc4)c4c(=O)n(C)c(=O)n(C)c4c32)c1O` (centres unmarked), for which the inhibition at 5 µM under setting [1] was under 10%. Moreover, the inhibition at 25 µM under setting [2] was 31%.

Turning to `Cn1c(=O)c2c(-c3ccccc3)n3c(c2n(C)c1=O)C(c1cccc(F)c1F)Nc1ccccc1-3` (centres unmarked) [PPQ-201, 7,9-Dimethyl-11-phenyl-6-(2,3-difluorophenyl)-5,6-dihydro-pyrimido[4′,5′-3,4]pyrrolo[1,2-a]quinoxaline-8,10-(7H,9H)-dione], the IC50 turned out to be 1200 nM. Further, the inhibition at 5 µM under setting [3] stood at 72%. The inhibition at 25 µM under setting [4] stood at 93%. Also, the inhibition at 5 µM under setting [1] is 72%. Moreover, under setting [2], the inhibition at 25 µM was 93%.

On to `Cn1c(=O)c2c(-c3ccccc3)n3c(c2n(C)c1=O)C(c1cccc(O)c1O)Nc1ccccc1-3` (centres unmarked), for which, under setting [1], the inhibition at 5 µM was under 10%. Also, the inhibition at 25 µM under setting [2] was found to be 38%.

In the case of `Cc1cccc(-c2c3c(=O)n(C)c(=O)n(C)c3c3n2-c2ccccc2NC3c2cccc(F)c2)c1` (centres unmarked) [PPQ-219, 7,9-Dimethyl-11-(3-methylphenyl)-6-(3-fluorophenyl)-5,6-dihydro-pyrimido[4′,5′-3,4]pyrrolo[1,2-a]quinoxaline-8,10-(7H,9H)-dione], the IC50 came out at 8000 nM. The inhibition at 5 µM under setting [3] is 53%. Further, the inhibition at 25 µM under setting [4] was 93%. The inhibition at 5 µM under setting [1] turned out to be 53%. Besides, under setting [2], the inhibition at 25 µM was 93%.

Take `COc1ccc(-c2c3c(=O)n(C)c(=O)n(C)c3c3n2-c2ccccc2NC3c2ccccc2F)cc1` (centres unmarked): under setting [1], the inhibition at 5 µM is under 10%. Besides, the inhibition at 25 µM under setting [2] was found to be 39%.

As to `COc1ccccc1C1Nc2cc(C)c(C)cc2-n2c(-c3ccccc3)c3c(=O)n(C)c(=O)n(C)c3c21` (centres unmarked), the inhibition at 5 µM under setting [1] was under 10%. The inhibition at 25 µM under setting [2] was 47%.

For `Cn1c(=O)c2c(-c3ccccc3)n3c(c2n(C)c1=O)C(c1cccc([N+](=O)[O-])c1)Nc1ccccc1-3` (centres unmarked) [PPQ-202, 7,9-Dimethyl-11-phenyl-6-(3-nitrophenyl)-5,6-dihydro-pyrimido[4′,5′-3,4]pyrrolo[1,2-a]quinoxaline-8,10-(7H,9H)-dione], the IC50 came out at 1200 nM. Moreover, under setting [3], the inhibition at 5 µM worked out at 60%. The inhibition at 25 µM under setting [4] was 90%. Besides, the inhibition at 5 µM under setting [1] worked out at 60%. The inhibition at 25 µM under setting [2] amounted to 90%.

As to `Cn1c(=O)c2c(-c3ccccc3)n3c(c2n(C)c1=O)C(c1ccccc1F)Nc1ccccc1-3` (centres unmarked) [PPQ-205, 7,9-Dimethyl-11-phenyl-6-(2-fluorophenyl)-5,6-dihydro-pyrimido[4′,5′-3,4]pyrrolo[1,2-a]quinoxaline-8,10-(7H,9H)-dione], the IC50 was determined as 2000 nM. In addition, the inhibition at 5 µM under setting [3] came to 61%. Moreover, the inhibition at 25 µM under setting [4] was found to be 81%. In addition, the inhibition at 5 µM under setting [1] amounted to 61%. Also, under setting [2], the inhibition at 25 µM amounted to 81%.

On to `Cn1c(=O)c2c(-c3ccccc3)n3c(c2n(C)c1=O)C(c1ccco1)Nc1ccccc1-3` (centres unmarked) [PPQ-112, 7,9-Dimethyl-11-phenyl-6-(5-furan-2-yl)-5,6-dihydro-pyrimido[4′,5′-3,4]pyrrolo[1,2-a]quinoxaline-8,10-(7H,9H)-dione], for which the inhibition at 5 µM under setting [1] worked out at 11%. For the same compound, the inhibition at 25 µM under setting [2] is 54%.

For `CCOc1ccccc1C1Nc2ccccc2-n2c(-c3cccc(C)c3)c3c(=O)n(C)c(=O)n(C)c3c21` (centres unmarked) [PPQ-231, 7,9-Dimethyl-11-(3-methylphenyl)-6-(2-ethoxyphenyl)-5,6-dihydro-pyrimido[4′,5′-3,4]pyrrolo[1,2-a]quinoxaline-8,10-(7H,9H)-dione], the inhibition at 5 µM under setting [1] is under 10%. Moreover, the inhibition at 25 µM under setting [2] was 87%.

Take `COc1cccc(C2Nc3ccccc3-n3c(-c4ccccc4C)c4c(=O)n(C)c(=O)n(C)c4c32)c1` (centres unmarked) [PPQ-216, 7,9-Dimethyl-11-(2-methylphenyl)-6-(3-methoxyphenyl)-5,6-dihydro-pyrimido[4′,5′-3,4]pyrrolo[1,2-a]quinoxaline-8,10-(7H,9H)-dione]: the IC50 was 3000 nM. The inhibition at 5 µM under setting [3] came to 62%. In addition, the inhibition at 5 µM under setting [1] came to 62%. For the same compound, the inhibition at 25 µM under setting [2] is over 95%.

For `COc1cc(O)ccc1C1Nc2ccccc2-n2c(-c3cccc(C)c3)c3c(=O)n(C)c(=O)n(C)c3c21` (centres unmarked) [PPQ-245, 7,9-Dimethyl-11-(3-methylphenyl)-6-(2-methoxy-4-hydroxyphenyl)-5,6-dihydro-pyrimido[4′,5′-3,4]pyrrolo[1,2-a]quinoxaline-8,10-(7H,9H)-dione], the inhibition at 5 µM under setting [1] turned out to be 20%. Besides, the inhibition at 25 µM under setting [2] amounted to 55%.

Take `Cn1c(=O)c2c(-c3ccccc3)n3c(c2n(C)c1=O)C(c1cccc(F)c1)Nc1ccccc1-3` (centres unmarked) [PPQ-239, 7,9-Dimethyl-11-phenyl-6-(3-fluorophenyl)-5,6-dihydro-pyrimido[4′,5′-3,4]pyrrolo[1,2-a]quinoxaline-8,10-(7H,9H)-dione]: under setting [1], the inhibition at 5 µM worked out at 45%. Besides, under setting [2], the inhibition at 25 µM was found to be 76%.

For `COc1cccc(C2Nc3ccccc3-n3c(-c4ccccc4)c4c(=O)n(C)c(=O)n(C)c4c32)c1` (centres unmarked) [PPQ-204, 7,9-Dimethyl-11-phenyl-6-(3-methoxyphenyl)-5,6-dihydro-pyrimido[4′,5′-3,4]pyrrolo[1,2-a]quinoxaline-8,10-(7H,9H)-dione], the IC50 was 1700 nM. The inhibition at 5 µM under setting [3] turned out to be 63%. Moreover, the inhibition at 25 µM under setting [4] stood at 86%. Also, the inhibition at 5 µM under setting [1] is 63%. Moreover, the inhibition at 25 µM under setting [2] stood at 86%.

On to `COc1ccc(-c2c3c(=O)n(C)c(=O)n(C)c3c3n2-c2ccccc2NC3c2ccccc2Cl)cc1` (centres unmarked), for which the inhibition at 5 µM under setting [1] is under 10%. For the same compound, the inhibition at 25 µM under setting [2] was 47%.

In the case of `COc1cc(C2Nc3ccccc3-n3c(-c4ccccc4C)c4c(=O)n(C)c(=O)n(C)c4c32)ccc1O` (centres unmarked) [PPQ-227, 7,9-Dimethyl-11-(2-methylphenyl)-6-(3-methoxy-4-hydroxyphenyl)-5,6-dihydro-pyrimido[4′,5′-3,4]pyrrolo[1,2-a]quinoxaline-8,10-(7H,9H)-dione], the inhibition at 5 µM under setting [1] was determined as 10%. Also, the inhibition at 25 µM under setting [2] came out at 78%.

Consider `Cn1c(=O)c2c(-c3ccccc3)n3c(c2n(C)c1=O)C(c1cc([N+](=O)[O-])ccc1O)Nc1ccccc1-3` (centres unmarked), for which the inhibition at 5 µM under setting [1] is 12%. Under setting [2], the inhibition at 25 µM was determined as 40%.

As for `Cn1c(=O)c2c(-c3ccccc3F)n3c(c2n(C)c1=O)C(c1cccs1)Nc1ccccc1-3` (centres unmarked) [PPQ-116, 7,9-Dimethyl-11-(2-fluorophenyl)-6-(thienyl-2-yl)-5,6-dihydro-pyrimido[4′,5′-3,4]pyrrolo[1,2-a]quinoxaline-8,10-(7H,9H )-dione], the inhibition at 5 µM under setting [1] was 47%. The inhibition at 25 µM under setting [2] was 76%.

Regarding `Cn1c(=O)c2c(-c3ccccc3)n3c(c2n(C)c1=O)C(c1ccccc1)Nc1ccccc1-3` (centres unmarked) [PPQ-206, 7,9-Dimethyl-11-phenyl-6-phenyl-5,6-dihydro-pyrimido[4′,5′-3,4]pyrrolo[1,2-a]quinoxaline-8,10-(7H,9H)-dione], the IC50 is 2500 nM.

Regarding `Cn1c(=O)c2c(-c3ccccc3F)n3c(c2n(C)c1=O)C(c1ccc(F)cc1)Nc1ccccc1-3` (centres unmarked) [PPQ-233, 7,9-Dimethyl-11-(2-fluorophenyl)-6-(4-fluorophenyl)-5,6-dihydro-pyrimido[4′,5′-3,4]pyrrolo[1,2-a]quinoxaline-8,10-(7H,9H)-dione], the inhibition at 5 µM under setting [1] is 28%. In addition, the inhibition at 25 µM under setting [2] amounted to 82%.
